Source: US9676704B2, “Pesticidal compositions and processes related thereto” (Dow AgroSciences LLC, priority 2014, dated 2017)
Read-outs that look alike come from different tables or passages of the source.

What was measured:
[1] = test system: Yellow Fever Mosquito (YFM); type: in vivo, Aedes aegypti; details: 15 μL of diluted 4000 ppm master solution per well, about 1 day-old larvae, 3 days
Description: Master plates containing 400 μg of a molecule dissolved in 100 μL of dimethyl sulfoxide (DMSO) (equivalent to a 4000 ppm solution) are used. A master plate of assembled molecules contains 15 μL per well. To this plate, 135 μL of a 90:10 water:acetone mixture is added to each well. A robot (Biomek® NXP Laboratory Automation Workstation) is programmed to dispense 15 μL aspirations from the master plate into an empty 96-well shallow plate (“daughter” plate). There are 6 reps (“daughter” plates) created per master. The created daughter plates are then immediately infested with YFM larvae. The day before plates are to be treated, mosquito eggs are placed in Millipore water containing liver powder to begin hatching (4 g. into 400 mL). After the daughter plates are created using the robot, they are infested with 220 μL of the liver powder/larval mosquito mixture (about 1 day-old larvae). After plates are infested with mosquito larvae, a non-evaporative lid is used to cover the plate to reduce drying. Plates are held at room temperature for 3 days prior to grading. After 3 days, each well is observed and scored based on mortality. The results are indicated in the table entitled “Table ABC: Assay Results (F)” and “Table ABCD: Assay Results (C)” (See Table Section). Pesticidally Acceptable Acid Addition Salts, Salt Derivatives, Solvates, Ester Derivatives, Polymorphs, Isotopes and Radionuclides

Beet Armyworm (BAW) = assay: Bioassays on BAW, 128-well diet tray assay; type: in vivo; details: Spodoptera exigua, 168 h, read-out: BAW % Control (or Mortality) rating
Description: Bioassays on BAW were conducted using a 128-well diet tray assay. one to five second instar BAW larvae were placed in each well (3 mL) of the diet tray that had been previously filled with 1 mL of artificial diet to which 50 μg/cm^2 of the test compound (dissolved in 50 μL of 90:10 acetone-water mixture) had been applied (to each of eight wells) and then allowed to dry. Trays were covered with a clear self-adhesive cover, and held at 25° C., 14:10 light-dark for five to seven days. Percent mortality was recorded for the larvae in each well; activity in the eight wells was then averaged. The results are indicated in the tables entitled “Table ABC: Assay Results (F)”, “Table ABCD: Assay Results (C)”, and “Table ABCDE: Assay Results (P)” (See Table Section).
(§1) Bioassays on BAW and CL were conducted according to the procedures outlined in Example A: Bioassays on Beet Armyworm (“BAW”) and Cabbage Looper (“CL”) using the following concentrations: 5, 0.5, and 0.05 μg/cm^2.

Cabbage Looper (CL) = assay: Bioassays on CL, 128-well diet tray assay; type: in vivo; details: Trichoplusia ni, 168 h, read-out: CL % Control (or Mortality) rating
Description: Bioassays on CL were conducted using a 128-well diet tray assay. One to five second instar CL larvae were placed in each well (3 mL) of the diet tray that had been previously filled with 1 mL of artificial diet to which 50 μg/cm^2 of the test compound (dissolved in 50 μL of 90:10 acetone-water mixture) had been applied (to each of eight wells) and then allowed to dry. Trays were covered with a clear self-adhesive cover, and held at 25° C., 14:10 light-dark for five to seven days. Percent mortality was recorded for the larvae in each well; activity in the eight wells was then averaged. The results are indicated in the table entitled “Table ABC: Assay Results (F)”, “Table ABCD: Assay Results (C)”, and “Table ABCDE: Assay Results (P)” (See Table Section).
as §1

[2] = 50 μg/cm^2 on artificial diet, second instar larvae, five to seven days, 25° C.

Row | SMILES | YFM % Control (or Mortality) rating [1] | mortality at 50 µg/cm2 (Beet Armyworm (BAW); [2]) [%] | mortality at 50 µg/cm2 (Cabbage Looper (CL); [2]) [%] | mortality at 50 µg/cm2 (Beet Armyworm (BAW)) [%] | mortality at 50 µg/cm2 (Cabbage Looper (CL)) [%]
1 | C[C@H](NC(=O)CCC(F)(F)F)NC(=O)c1ccc(/C=C/C(c2cc(Cl)c(Br)c(Cl)c2)C(F)(F)F)cc1C(F)(F)F (stereo partly drawn) [Compound P12, 4-((E)-3-(4-Bromo-3,5-dichlorophenyl)-4,4,4-trifluorobut-1-en-1-yl)-N—((R)-1-(4,4,4-trifluorobutanamido)ethyl)-2-(trifluoromethyl)benzamide] | A (80-100) | 50 to 100 | 50 to 100 | – | –
2 | Cc1cc(/C=C/C(c2cc(Br)c(Cl)c(Br)c2)C(F)(F)F)ccc1C(=O)N[C@H](C)NC(=O)CC(F)(F)F (stereo partly drawn) [Compound P6, 4-((E)-3-(3,5-Dibromo-4-chlorophenyl)-4,4,4-trifluorobut-1-en-1-yl)-2-methyl-N—((R)-1-(3,3,3-trifluoropropanamido)ethyl)benzamide] | A (80-100) | 50 to 100 | 50 to 100 | – | –
3 | C[C@H](NC(=O)CCC(F)(F)F)NC(=O)c1ccc(/C=C/C(c2cc(Br)cc(Br)c2)C(F)(F)F)cc1C(F)(F)F (stereo partly drawn) [Compound P11, 4-((E)-3-(3,5-Dibromophenyl)-4,4,4-trifluorobut-1-en-1-yl)-N—((R)-1-(4,4,4-trifluorobutanamido)ethyl)-2-(trifluoromethyl)benzamide] | A (80-100) | 50 to 100 | 50 to 100 | – | –
4 | CC(C)CCC(=O)N[C@@H](C)NC(=O)c1ccc(/C=C/C(c2cc(Cl)c(Cl)c(Cl)c2)C(F)(F)F)cc1C(F)(F)F (stereo partly drawn) [Compound F4, N—((R)-1-(4-Methylpentanamido)ethyl)-4-((E)-4,4,4-trifluoro-3-(3,4,5-trichlorophenyl)but-1-en-1-yl)-2-(trifluoromethyl)benzamide] | A (80-100) | 50 to 100 | 50 to 100 | – | –
5 | C[C@@H](NC(=O)c1ccc(/C=C/C(c2cc(Cl)c(Cl)c(Cl)c2)C(F)(F)F)cc1C(F)(F)F)NC(=O)C(C)(C)C(F)(F)F (stereo partly drawn) [Compound P33, N—((S)-1-(3,3,3-Trifluoro-2,2-dimethylpropanamido)ethyl)-4-((E)-4,4,4-trifluoro-3-(3,4,5-trichlorophenyl)but-1-en-1-yl)-2-(trifluoromethyl)benzamide] | A (80-100) | 50 to 100 | 50 to 100 | – | –
6 | C[C@H](NC(=O)CC(F)(F)F)NC(=O)c1ccc(/C=C/C(c2cc(Br)c(Cl)c(Br)c2)C(F)(F)F)cc1C(F)(F)F (stereo partly drawn) [Compound P2, 4-((E)-3-(3,5-Dibromo-4-chlorophenyl)-4,4,4-trifluorobut-1-en-1-yl)-2-(trifluoromethyl)-N—((R)-1-(3,3,3-trifluoropropanamido)ethyl)benzamide] | A (80-100) | 50 to 100 | 50 to 100 | – | –
7 | C[C@H](NC(=O)CC(F)(F)F)NC(=O)c1ccc(/C=C/C(c2cc(Br)cc(Br)c2)C(F)(F)F)cc1C(F)(F)F (stereo partly drawn) [Compound P3, 4-((E)-3-(3,5-Dibromophenyl)-4,4,4-trifluorobut-1-en-1-yl)-2-(trifluoromethyl)-N—((R)-1-(3,3,3-trifluoropropanamido)ethyl)benzamide] | B (More than 0-Less than 80) | 50 to 100 | 50 to 100 | – | –
8 | CN(NC(=O)c1ccc(/C=C/C(c2cc(Cl)c(Cl)c(Cl)c2)C(F)(F)F)cc1C(F)(F)F)C(=O)CC(F)(F)F (stereo not drawn) [Compound F22, (E)-N′-methyl-4-(4,4,4-trifluoro-3-(3,4,5-trichlorophenyl)but-1-en-1-yl)-2-(trifluoromethyl)-N′-(3,3,3-trifluoropropanoyl)benzohydrazide] | A (80-100) | 50 to 100 | 50 to 100 | – | –
9 | CN(NC(=O)c1ccc(/C=C/C(c2cc(Cl)c(Cl)c(Cl)c2)C(F)(F)F)cc1C(F)(F)F)C(=O)OC(C)(C)C (stereo not drawn) [Compound C116, (E)-tert-butyl 1-methyl-2-(4-(4,4,4-trifluoro-3-(3,4,5-trichlorophenyl)but-1-en-1-yl)-2-(trifluoromethyl)benzoyl)hydrazinecarboxylate] | A (80-100) | – | – | 50 to 100 | 50 to 100
10 | C[C@@H](NC(=O)c1ccc(/C=C/C(c2cc(Cl)c(Cl)c(Cl)c2)C(F)(F)F)cc1C(F)(F)F)NC(=O)C1CC1 (stereo partly drawn) [Compound F7, N—((R)-1-(Cyclopropanecarboxamido)ethyl)-4-((E)-4,4,4-trifluoro-3-(3,4,5-trichlorophenyl)but-1-en-1-yl)-2-(trifluoromethyl)benzamide] | A (80-100) | 50 to 100 | 50 to 100 | – | –
11 | CN(CCNC(=O)c1ccc(/C=C/C(c2cc(Cl)c(Cl)c(Cl)c2)C(F)(F)F)cc1C(F)(F)F)C(=O)CC(F)(F)F (stereo not drawn) [Compound F20, (E)-4-(4,4,4-trifluoro-3-(3,4,5-trichlorophenyl)but-1-en-1-yl)-N-(2-(3,3,3-trifluoro-N-methylpropanamido)ethyl)-2-(trifluoromethyl)benzamide] | A (80-100) | 50 to 100 | 50 to 100 | – | –
12 | C[C@H](NC(=O)CC#N)NC(=O)c1ccc(/C=C/C(c2cc(Cl)c(Cl)c(Cl)c2)C(F)(F)F)cc1C(F)(F)F (stereo partly drawn) [Compound F11, N—((R)-1-(2-Cyanoacetamido)ethyl)-4-((E)-4,4,4-trifluoro-3-(3,4,5-trichlorophenyl)but-1-en-1-yl)-2-(trifluoromethyl)benzamide] | A (80-100) | 50 to 100 | 50 to 100 | – | –
13 | C[C@H](NC(=O)CC(F)(F)F)NC(=O)c1ccc(/C=C/C(c2cc(Cl)c(Br)c(Cl)c2)C(F)(F)F)cc1C(F)(F)F (stereo partly drawn) [Compound P4, 4-((E)-3-(4-Bromo-3,5-dichlorophenyl)-4,4,4-trifluorobut-1-en-1-yl)-2-(trifluoromethyl)-N—((R)-1-(3,3,3-trifluoropropanamido)ethyl)benzamide] | A (80-100) | 50 to 100 | 50 to 100 | – | –
14 | CC(C)=CC(=O)N[C@@H](C)NC(=O)c1ccc(/C=C/C(c2cc(Cl)c(Cl)c(Cl)c2)C(F)(F)F)cc1C(F)(F)F (stereo partly drawn) [Compound F8, N—((R)-1-(3-Methylbut-2-enamido)ethyl)-4-((E)-4,4,4-trifluoro-3-(3,4,5-trichlorophenyl)but-1-en-1-yl)-2-(trifluoromethyl)benzamide] | A (80-100) | 50 to 100 | 50 to 100 | – | –
15 | C[C@H](NC(=O)CCCC(F)(F)F)NC(=O)c1ccc(/C=C/C(c2cc(Cl)c(Cl)c(Cl)c2)C(F)(F)F)cc1C(F)(F)F (stereo partly drawn) [Compound F10, 4-((E)-4,4,4-Trifluoro-3-(3,4,5-trichlorophenyl)but-1-en-1-yl)-2-(trifluoromethyl)-N—((R)-1-(5,5,5-trifluoropentanamido)ethyl)benzamide] | A (80-100) | 50 to 100 | 50 to 100 | – | –
16 | Cc1cc(/C=C/C(c2cc(Br)cc(Br)c2)C(F)(F)F)ccc1C(=O)N[C@H](C)NC(=O)CC(F)(F)F (stereo partly drawn) [Compound P7, 4-((E)-3-(3,5-Dibromophenyl)-4,4,4-trifluorobut-1-en-1-yl)-2-methyl-N—((R)-1-(3,3,3-trifluoropropanamido)ethyl)benzamide] | A (80-100) | 50 to 100 | 50 to 100 | – | –
